According to patent US6673938B1, “Substituted pyridine herbicides” (Syngenta Participations AG, priority 1998, dated 2004):

Key:
[1] = system: Monocotyledonous and dicotyledonous test plants; test: Herbicidal action before emergence of the plants (pre-emergence action); format: in vivo; conditions: evaluated after 3 weeks, nine-step scale; for pre-emergence action, Cyperus / pre-emergence action, Ipomoea / pre-emergence action, Setaria / pre-emergence action, Sinapis / pre-emergence action, Solanum / pre-emergence action, Stellaria: 2000 g/ha
How it was run: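 Sprayed onto soil immediately after sowing as WP suspension or EC emulsion at 2 kg or 250 g a.i./ha (500 l water/ha). Greenhouse growth for 3 weeks, then scored on a nine-step scale (1 = complete damage, 9 = no effect).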

[2] = system: Monocotyledonous and dicotyledonous test plants; test: Post-emergence herbicidal action; format: in vivo; conditions: evaluated after approximately 18 days; for Post-emergence action, Ipomoea / Post-emergence action, Lolium / Post-emergence action, Setaria / Post-emergence action, Sinapis / Post-emergence action, Solanum / Post-emergence action, Stellaria: 2000 g/ha, sprayed in 4- to 6-leaf stage, nine-step scale
How it was run: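 Scoring uses a 1–9 scale (1 complete damage, 9 no effect), read roughly 18 days post-application. Compounds were applied post-emergence at 4–6 leaves, as aqueous suspension (25% wettable powder) or emulsion (25% emulsion concentrate), at 250 g or 2 kg a.i./ha in 500 l water/ha.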

Cc1nc(C(F)(F)C(F)(F)C(F)(F)F)ccc1C(=O)C1=C(O)C(C)(C)CCC1=O [Compound A64-B24]
1: pre-emergence action, Solanum [1] | Post-emergence action, Sinapis [2]
2: pre-emergence action, Setaria [1] | pre-emergence action, Sinapis [1] | pre-emergence action, Stellaria [1] | Post-emergence action, Ipomoea [2] | Post-emergence action, Lolium [2] | Post-emergence action, Solanum [2] | Post-emergence action, Stellaria [2]
4: pre-emergence action, Cyperus [1] | pre-emergence action, Ipomoea [1] | Post-emergence action, Setaria [2]

CCC1CC(C)(C)C(=O)C(C(=O)c2ccc(C(F)(F)F)nc2C)=C1O (stereo not shown) [Compound A2-B1089]
1: pre-emergence action, Cyperus [1] | pre-emergence action, Solanum [1] | Post-emergence action, Ipomoea [2] | Post-emergence action, Sinapis [2] | Post-emergence action, Solanum [2]
2: pre-emergence action, Ipomoea [1] | pre-emergence action, Setaria [1] | pre-emergence action, Sinapis [1] | pre-emergence action, Stellaria [1] | Post-emergence action, Lolium [2] | Post-emergence action, Setaria [2] | Post-emergence action, Stellaria [2]

CCC1(C)CCC(=O)C(C(=O)c2ccc(C(F)(F)F)nc2C)=C1O (stereo not shown) [Compound A2-B25]
3: pre-emergence action, Ipomoea [1]
2: pre-emergence action, Cyperus [1] | pre-emergence action, Setaria [1] | pre-emergence action, Sinapis [1] | pre-emergence action, Stellaria [1] | Post-emergence action, Lolium [2] | Post-emergence action, Setaria [2] | Post-emergence action, Sinapis [2] | Post-emergence action, Stellaria [2]
1: pre-emergence action, Solanum [1] | Post-emergence action, Ipomoea [2] | Post-emergence action, Solanum [2]

Cc1nc(C(F)(F)F)ccc1C(=O)C1=C(O)C(C)(C)CC(C)(C)C1=O [Compound A2-B90]
2: Post-emergence action, Lolium [2] | Post-emergence action, Setaria [2] | Post-emergence action, Solanum [2] | Post-emergence action, Stellaria [2]
1: pre-emergence action, Cyperus [1] | pre-emergence action, Ipomoea [1] | pre-emergence action, Setaria [1] | pre-emergence action, Sinapis [1] | pre-emergence action, Solanum [1] | pre-emergence action, Stellaria [1] | Post-emergence action, Ipomoea [2] | Post-emergence action, Sinapis [2]

COCc1nc(C(F)(F)F)ccc1C(=O)C1=C(O)C(C)(C)CCC1=O [Compound A8-B24]
1: pre-emergence action, Cyperus [1] | pre-emergence action, Solanum [1] | Post-emergence action, Sinapis [2]
2: pre-emergence action, Ipomoea [1] | pre-emergence action, Setaria [1] | pre-emergence action, Sinapis [1] | Post-emergence action, Ipomoea [2] | Post-emergence action, Lolium [2] | Post-emergence action, Setaria [2] | Post-emergence action, Solanum [2] | Post-emergence action, Stellaria [2]
3: pre-emergence action, Stellaria [1]

Cc1nc(C(F)(F)F)ccc1C(=O)C1=C(O)CCC2(CCC2)C1=O [Compound A2-C146]
2: pre-emergence action, Ipomoea [1] | pre-emergence action, Setaria [1] | pre-emergence action, Sinapis [1] | pre-emergence action, Stellaria [1] | Post-emergence action, Lolium [2] | Post-emergence action, Setaria [2] | Post-emergence action, Solanum [2] | Post-emergence action, Stellaria [2]
1: pre-emergence action, Cyperus [1] | pre-emergence action, Solanum [1] | Post-emergence action, Ipomoea [2] | Post-emergence action, Sinapis [2]

Cc1nc(C(F)(F)F)ccc1C(=O)C1=C(O)C(C)C(C)CC1=O (stereo not shown) [Compound A2-B134]
1: pre-emergence action, Cyperus [1] | pre-emergence action, Setaria [1] | pre-emergence action, Solanum [1] | pre-emergence action, Stellaria [1] | Post-emergence action, Setaria [2] | Post-emergence action, Sinapis [2] | Post-emergence action, Solanum [2]
2: pre-emergence action, Ipomoea [1] | pre-emergence action, Sinapis [1] | Post-emergence action, Ipomoea [2] | Post-emergence action, Lolium [2] | Post-emergence action, Stellaria [2]

CCOC(=O)OCc1nc(C(F)(F)F)ccc1C(=O)C1=C(O)C(C)(C)C(=O)C(C)(C)C1=O [Compound A1208-B354]
4: Post-emergence action: Digitaria (score, nine-step scale) ([2]; Digitaria, 250 g/ha, sprayed at 4- to 6-leaf stage)
1: Pre-emergence action, Abutilon ([1]; Abutilon, 250 g/ha) | Pre-emergence action, Amaranthus ([1]; Amaranthus, 250 g/ha) | Pre-emergence action, Chenop. ([1]; Chenop., 250 g/ha) | Pre-emergence action, Digitaria ([1]; Digitaria, 250 g/ha) | Pre-emergence action, Echino. ([1]; Echino., 250 g/ha) | Pre-emergence action, Panicum ([1]; Panicum, 250 g/ha) | Post-emergence action: Abutilon (score, nine-step scale) ([2]; Abutilon, 250 g/ha, sprayed at 4- to 6-leaf stage)
3: Post-emergence action: Panicum (score, nine-step scale) ([2]; Panicum, 250 g/ha, sprayed at 4- to 6-leaf stage)
2: Post-emergence action: Chenop. (score, nine-step scale) ([2]; Chenop., 250 g/ha, sprayed at 4- to 6-leaf stage) | Post-emergence action: Echino. (score, nine-step scale) ([2]; Echino., 250 g/ha, sprayed at 4- to 6-leaf stage) | Post-emergence action: Ipopur. (score, nine-step scale) ([2]; Ipopur., 250 g/ha, sprayed at 4- to 6-leaf stage) | Post-emergence action: Xanth. (score, nine-step scale) ([2]; Xanth., 250 g/ha, sprayed at 4- to 6-leaf stage)

CSC1(C)CC(C)C(=O)C(C(=O)c2ccc(C(F)(F)F)nc2C)=C1O (stereo not shown) [Compound A2-B73]
4: pre-emergence action, Ipomoea [1]
3: pre-emergence action, Cyperus [1] | Post-emergence action, Lolium [2]
2: pre-emergence action, Setaria [1] | pre-emergence action, Sinapis [1] | pre-emergence action, Solanum [1] | pre-emergence action, Stellaria [1] | Post-emergence action, Setaria [2] | Post-emergence action, Stellaria [2]
1: Post-emergence action, Ipomoea [2] | Post-emergence action, Sinapis [2] | Post-emergence action, Solanum [2]

CCC1(C)CC(C)C(=O)C(C(=O)c2ccc(C(F)(F)F)nc2C)=C1O (stereo not shown) [Compound A2-B69]
4: pre-emergence action, Ipomoea [1]
2: pre-emergence action, Setaria [1] | pre-emergence action, Sinapis [1] | Post-emergence action, Lolium [2] | Post-emergence action, Setaria [2] | Post-emergence action, Solanum [2] | Post-emergence action, Stellaria [2]
1: pre-emergence action, Cyperus [1] | pre-emergence action, Solanum [1] | pre-emergence action, Stellaria [1] | Post-emergence action, Ipomoea [2] | Post-emergence action, Sinapis [2]

COCc1nc(C(F)(F)F)ccc1C(=O)C1=C([S+]([O-])c2ccccc2)CCCC1=O (stereo not shown) [Compound A8-B1103]
2: pre-emergence action, Setaria [1] | pre-emergence action, Stellaria [1]
1: pre-emergence action, Cyperus [1] | pre-emergence action, Sinapis [1] | pre-emergence action, Solanum [1] | Post-emergence action, Ipomoea [2] | Post-emergence action, Setaria [2] | Post-emergence action, Sinapis [2] | Post-emergence action, Solanum [2] | Post-emergence action, Stellaria [2]
3: pre-emergence action, Ipomoea [1]
4: Post-emergence action, Lolium [2]

Cc1nc(C(F)(F)F)ccc1C(=O)C1=C(O)CC(C)(C)CC1=O [Compound A2-B1063]
4: Post-emergence action, Setaria [2]
1: pre-emergence action, Cyperus [1] | pre-emergence action, Setaria [1] | pre-emergence action, Solanum [1] | Post-emergence action, Sinapis [2]
2: pre-emergence action, Ipomoea [1] | pre-emergence action, Sinapis [1] | pre-emergence action, Stellaria [1] | Post-emergence action, Ipomoea [2] | Post-emergence action, Lolium [2] | Post-emergence action, Solanum [2] | Post-emergence action, Stellaria [2]
